# Measurements reported in publication PMC9380671, “Development of spiro-3-indolin-2-one containing compounds of antiproliferative and anti-SARS-CoV-2 properties” (Scientific Reports, 2022).
# Like-named read-outs stand apart in the source and are kept apart here.
# Assays:
# [1] = system: HCT116 (colon) cancer cell line; experiment: MTT antiproliferation, HCT116; assay type: cell-based, human; details: for IC50: Homo sapiens, HCT-116, 72 h, read-out: IC50 (µM) ± SEM HCT116; for SI (selectivity index) HCT116: IC50 of RPE1/IC50 of cancer cell line
# Protocol: (§1) Antiproliferation properties of the targeted agents were investigated by the standard MTT technique against diverse human cancer cell lines [MCF7 (breast), HCT116 (colon), A431 (skin squamous) and PaCa2 (pancreatic)][67] (Table 1, Supplementary Figs. S48‒S51).
# (§2) Cells were seeded at concentration of 30000 cells per well in fresh complete growth medium in 96-well tissue culture microtiter plates for 24 h. […] 0.5% DMSO was used as negative control. Triplicate wells were prepared for each individual dose. After 72 h of incubation, medium was aspirated, 40 μl MTT salt (2.5 mg ml^-1) was added to each well and incubated for further 4 h at 37 °C. To stop the reaction and dissolve the formed crystals, 150 μl of 10% sodium dodecyl sulfate (SDS) in deionized water was added to each well and incubated overnight at 37 °C.
# (§3) Data were collected as mean values for experiments performed in triplicates for each individual dose which had been measured by MTT assay. […] The cell surviving fraction was calculated according to the following equation.
# (§4) Surviving fraction = OpticaldensityO.D.oftreatedcellsO.D.ofcontrolcells
# (§5) Statistical calculations for determination of the mean and standard error mean values were determined by SPSS 16 software.
# [2] = system: MCF7 (breast) cancer cell line; experiment: MTT antiproliferation, MCF7; assay type: cell-based, human; details: for IC50: Homo sapiens, MCF7, 72 h, read-out: IC50 (µM) ± SEM MCF7; for SI (selectivity index) MCF7: IC50 of RPE1/IC50 of cancer cell line
# Protocol: as §1, §2, §3, §4, §5
# AChE = AChE (Homo sapiens, UniProt P22303); experiment: AChE inhibition (DTNB, acetylthiocholine); assay type: biochemical; details: for IC50: read-out: AChE (IC50, μM) ± SD
# Protocol: All compounds were dissolved in MeOH.
# EGFR = molecular target: T1, EGFR (Homo sapiens, UniProt P00533); assay type: cell-based; details: western blot, MCF7, compound at its MTT IC50; for EGFR RQ (relative quantification): control RQ 3.4461
# T1 construct: Western blot technique was considered for EGFR and VEGFR-2 properties determination; endogenous in cells; host or cells: MCF7 (breast cancer cell line)
# Excerpt: (§6) The western blot technique was applied utilizing the IC50 observed for each respective agent synthesized during MTT assay[85],[86]. Consideration of multi-targeted inhibitory properties investigation is based in the fact that cancer initiation and proliferation sometimes utilizes many receptors or signaling pathways.
# (§7) Western blot technique was considered for EGFR and VEGFR-2 properties determination utilizing the IC50 observed of each respective agent synthesized during MTT assay against MCF7 (breast) cancer cell line. All the studies were conducted according to the manufacturer’s instruction.^10,^11
# VEGFR-2 = molecular target: T2, VEGFR-2 (Homo sapiens, UniProt P35968); assay type: cell-based; details: western blot, MCF7, compound at its MTT IC50; for VEGFR-2 RQ (relative quantification): control RQ 3.2634
# T2 construct: Western blot technique was considered for EGFR and VEGFR-2 properties determination; endogenous in cells; host or cells: MCF7 (breast cancer cell line)
# Excerpt: as §6, §7
# [3] = MTT cytotoxicity assay (CC50); assay type: cell-based; details: African green monkey, VERO-E6 cells
# Protocol: The cytotoxic activity of the compounds was tested in VERO-E6 cells by using the 3-(4,5-dimethylthiazol-2-yl)-2,5-diphenyltetrazolium bromide (MTT) method with minor modifications. Briefly, the cells were seeded in 96 well-plates […] at a density of 3 x 10^5 cell/ml and incubated for 24 h at 37 °C in 5% CO2. After 24 h, cells were treated with various concentrated of the tested compounds in triplicates. 24 h later, the supernatant was discarded and cell monolayers were washed with sterile 1x phosphate buffer saline (PBS) 3 times and MTT solution (20 µl of 5 mg/ml) was added to each well and incubated at 37 °C for 4 h followed by medium aspiration. In each well, the formed formazan crystals were dissolved with 200 µl of acidified isopropanol (0.04 M HCl in absolute isopropanol = 0.073 ml HCl in 50 ml isopropanol). Eventually, the absorbance was measured at λmax 570 nm using the Anthos Zenyth 200rt plate reader (Anthos Labtec Instruments, Heerhugowaard, Netherlands). The cytotoxicity of various concentrations compared to the untreated cells was determined using nonlinear regression analysis by plotting log inhibitor versus normalized response.^12^-14
# [4] = system: SARS-CoV-2 (hCoV-19/Egypt/NRC-03/2020); experiment: Vero-E6 cell viral infection model, anti-SARS-CoV-2 IC50 (CPE, crystal violet); assay type: cell-based; details: for IC50: Severe acute respiratory syndrome coronavirus 2, Vero C1008; for SI = CC50/IC50: Vero-E6, SARS-CoV-2
# [5] = system: RPE1 (normal human immortalized retinal pigment epithelial cell line); experiment: MTT toxicity towards normal cells, RPE1; assay type: cell-based; details: RPE-1, read-out: IC50 (µM) ± SEM RPE1
# Protocol: The safety of the synthesized agents against non-cancer/normal RPE1 (retinal pigment epithelium) cell line was assessed (Table 1, Supplementary Fig. S52). The SI (selectivity index) for the tested compounds against RPE1 cell line confirms the safety towards non-cancer cells. […] Compound 6d and 6h which are also of high anti-PaCa2 show remarkable SI values (SI = > 3.8, > 3.6, respectively).
# The agents synthesized were also tested against RPE1 (normal human immortalized retinal pigment epithelial cell line) cell (in DMEM-F12 medium) to determine the toxicity/selectivity towards normal cells relative to the cancer cell lines utilized.
# (§8) Statistical calculations for determination of the mean and standard error mean values were determined by SPSS 16 software. The observed anti-proliferative properties are presented in Table 1 (Supplementary Figs. S48‒S52).
# BChE = BChE (Homo sapiens, UniProt P06276); experiment: BChE inhibition (DTNB, butyrylthiocholine iodide)
# [6] = system: PaCa2 (pancreatic) cancer cell line; experiment: MTT antiproliferation, PaCa-2; assay type: cell-based, human; details: for IC50: Homo sapiens, PaCa-2, 72 h, read-out: IC50 (µM) ± SEM PaCa-2; for SI (selectivity index) PaCa-2: IC50 of RPE1/IC50 of cancer cell line
# Protocol: as §1
# Cells were suspended in DMEM medium for MCF7, A431, PaCa-2 and McCoy’s 5A for HCT116 in addition to 1% antibiotic–antimycotic mixture (10000 μg ml^-1 potassium penicillin, 10000 μg ml^-1 streptomycin sulfate and 25 μg ml^-1 amphotericin B), 10% fetal bovine serum and 1% L-glutamine at 37 °C, under 5% CO2 and 95% humidity. Cells were seeded at concentration of 30000 cells per well in fresh complete growth medium in 96-well tissue culture microtiter plates for 24 h. Media was aspirated, fresh complete medium was added and cells were incubated with different concentrations of the tested compound to give a final concentration of [50, 25, 12.5 and 6.25 μM “in addition to 3.125, 1.56 and 0.78 μM in case of high potent analogues”). 0.5% DMSO was used as negative control. Triplicate wells were prepared for each individual dose. After 72 h of incubation, medium was aspirated, 40 μl MTT salt (2.5 mg ml^-1) was added to each well and incubated for further 4 h at 37 °C. To stop the reaction and dissolve the formed crystals, 150 μl of 10% sodium dodecyl sulfate (SDS) in deionized water was added to each well and incubated overnight at 37 °C. The absorbance was then measured at 570 nm and a reference wavelength of 595 nm.
# as §3, §4, §8
# [7] = system: A431 (skin squamous) cancer cell line; experiment: MTT antiproliferation, A431; assay type: cell-based, human; details: for IC50: Homo sapiens; for SI (selectivity index) A431: IC50 of RPE1/IC50 of cancer cell line
# Protocol: as §1, §2, §3, §4, §5
# [8] = Vero-E6, 72 h, reduction of virus-induced CPE, read-out: IC50 (µM) SARS-CoV-2
# [9] = log of observed IC50 in μM, read-out: Observed log(IC50, μM) (SARS-CoV-2) (converted)
# [10] = A-431, 72 h, read-out: IC50 (µM) ± SEM A431
# [11] = A-431, read-out: Observed log(IC50, μM) (A431) (converted)
# BChE, sequence (P06276 29-602, species assumed): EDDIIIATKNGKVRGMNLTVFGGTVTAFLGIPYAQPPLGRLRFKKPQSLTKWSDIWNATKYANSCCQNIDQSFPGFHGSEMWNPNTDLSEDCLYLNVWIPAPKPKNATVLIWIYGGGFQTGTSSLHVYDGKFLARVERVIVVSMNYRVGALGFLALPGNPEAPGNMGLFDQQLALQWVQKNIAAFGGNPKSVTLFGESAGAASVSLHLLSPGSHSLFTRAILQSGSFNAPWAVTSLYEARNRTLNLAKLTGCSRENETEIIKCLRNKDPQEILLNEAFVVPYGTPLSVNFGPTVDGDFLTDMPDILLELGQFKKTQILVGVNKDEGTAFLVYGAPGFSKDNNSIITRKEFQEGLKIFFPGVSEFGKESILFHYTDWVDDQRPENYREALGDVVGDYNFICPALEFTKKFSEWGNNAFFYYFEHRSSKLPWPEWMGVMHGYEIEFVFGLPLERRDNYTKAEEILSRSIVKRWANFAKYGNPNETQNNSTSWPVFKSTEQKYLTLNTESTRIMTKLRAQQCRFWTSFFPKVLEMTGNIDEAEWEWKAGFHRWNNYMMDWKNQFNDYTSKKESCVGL
# T1 sequence (P00533 25-1210): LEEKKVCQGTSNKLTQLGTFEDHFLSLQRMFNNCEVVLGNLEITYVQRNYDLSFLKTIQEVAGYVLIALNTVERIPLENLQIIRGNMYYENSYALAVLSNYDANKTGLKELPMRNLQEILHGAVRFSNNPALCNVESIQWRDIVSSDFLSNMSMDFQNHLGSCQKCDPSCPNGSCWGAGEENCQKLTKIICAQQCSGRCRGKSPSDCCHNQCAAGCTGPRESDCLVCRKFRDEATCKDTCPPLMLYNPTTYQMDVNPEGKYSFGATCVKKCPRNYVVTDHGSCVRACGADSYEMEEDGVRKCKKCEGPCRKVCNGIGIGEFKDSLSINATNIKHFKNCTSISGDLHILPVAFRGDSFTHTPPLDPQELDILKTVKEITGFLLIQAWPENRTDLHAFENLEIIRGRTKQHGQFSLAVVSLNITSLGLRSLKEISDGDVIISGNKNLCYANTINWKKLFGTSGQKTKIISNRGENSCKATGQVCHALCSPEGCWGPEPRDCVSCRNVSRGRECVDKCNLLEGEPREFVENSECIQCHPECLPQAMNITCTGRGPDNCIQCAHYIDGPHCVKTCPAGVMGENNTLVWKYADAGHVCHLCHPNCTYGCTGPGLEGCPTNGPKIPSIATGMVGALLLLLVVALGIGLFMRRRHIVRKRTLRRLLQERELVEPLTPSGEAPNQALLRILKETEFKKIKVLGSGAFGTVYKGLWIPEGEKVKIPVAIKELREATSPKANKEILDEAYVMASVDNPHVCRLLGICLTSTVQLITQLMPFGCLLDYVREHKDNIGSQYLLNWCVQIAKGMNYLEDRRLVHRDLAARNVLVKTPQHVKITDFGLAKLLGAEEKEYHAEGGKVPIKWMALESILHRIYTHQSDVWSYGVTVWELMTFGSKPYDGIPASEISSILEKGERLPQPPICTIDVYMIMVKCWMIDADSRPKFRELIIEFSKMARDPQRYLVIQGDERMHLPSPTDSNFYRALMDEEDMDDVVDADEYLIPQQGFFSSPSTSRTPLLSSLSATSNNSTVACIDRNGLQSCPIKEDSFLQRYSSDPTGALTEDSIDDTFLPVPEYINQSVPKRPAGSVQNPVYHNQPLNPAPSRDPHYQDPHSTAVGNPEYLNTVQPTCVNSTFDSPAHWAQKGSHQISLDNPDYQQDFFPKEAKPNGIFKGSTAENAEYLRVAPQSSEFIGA
# AChE, sequence (P22303 32-614): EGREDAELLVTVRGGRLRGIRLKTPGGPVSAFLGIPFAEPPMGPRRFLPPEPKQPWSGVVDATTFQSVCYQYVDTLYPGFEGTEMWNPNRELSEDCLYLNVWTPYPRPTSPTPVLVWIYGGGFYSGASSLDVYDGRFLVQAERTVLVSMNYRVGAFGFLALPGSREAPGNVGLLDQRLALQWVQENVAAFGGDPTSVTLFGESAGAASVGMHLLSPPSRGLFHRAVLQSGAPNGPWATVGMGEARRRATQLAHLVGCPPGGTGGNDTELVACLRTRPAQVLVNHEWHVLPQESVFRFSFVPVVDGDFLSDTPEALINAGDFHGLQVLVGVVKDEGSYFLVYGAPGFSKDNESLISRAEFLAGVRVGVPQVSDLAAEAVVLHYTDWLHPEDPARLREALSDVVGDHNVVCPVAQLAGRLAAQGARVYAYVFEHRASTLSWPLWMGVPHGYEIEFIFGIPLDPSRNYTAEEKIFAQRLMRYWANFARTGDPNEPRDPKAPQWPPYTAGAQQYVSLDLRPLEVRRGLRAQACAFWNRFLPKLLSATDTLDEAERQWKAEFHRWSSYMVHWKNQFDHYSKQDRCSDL
# T2 sequence (P35968 20-1356): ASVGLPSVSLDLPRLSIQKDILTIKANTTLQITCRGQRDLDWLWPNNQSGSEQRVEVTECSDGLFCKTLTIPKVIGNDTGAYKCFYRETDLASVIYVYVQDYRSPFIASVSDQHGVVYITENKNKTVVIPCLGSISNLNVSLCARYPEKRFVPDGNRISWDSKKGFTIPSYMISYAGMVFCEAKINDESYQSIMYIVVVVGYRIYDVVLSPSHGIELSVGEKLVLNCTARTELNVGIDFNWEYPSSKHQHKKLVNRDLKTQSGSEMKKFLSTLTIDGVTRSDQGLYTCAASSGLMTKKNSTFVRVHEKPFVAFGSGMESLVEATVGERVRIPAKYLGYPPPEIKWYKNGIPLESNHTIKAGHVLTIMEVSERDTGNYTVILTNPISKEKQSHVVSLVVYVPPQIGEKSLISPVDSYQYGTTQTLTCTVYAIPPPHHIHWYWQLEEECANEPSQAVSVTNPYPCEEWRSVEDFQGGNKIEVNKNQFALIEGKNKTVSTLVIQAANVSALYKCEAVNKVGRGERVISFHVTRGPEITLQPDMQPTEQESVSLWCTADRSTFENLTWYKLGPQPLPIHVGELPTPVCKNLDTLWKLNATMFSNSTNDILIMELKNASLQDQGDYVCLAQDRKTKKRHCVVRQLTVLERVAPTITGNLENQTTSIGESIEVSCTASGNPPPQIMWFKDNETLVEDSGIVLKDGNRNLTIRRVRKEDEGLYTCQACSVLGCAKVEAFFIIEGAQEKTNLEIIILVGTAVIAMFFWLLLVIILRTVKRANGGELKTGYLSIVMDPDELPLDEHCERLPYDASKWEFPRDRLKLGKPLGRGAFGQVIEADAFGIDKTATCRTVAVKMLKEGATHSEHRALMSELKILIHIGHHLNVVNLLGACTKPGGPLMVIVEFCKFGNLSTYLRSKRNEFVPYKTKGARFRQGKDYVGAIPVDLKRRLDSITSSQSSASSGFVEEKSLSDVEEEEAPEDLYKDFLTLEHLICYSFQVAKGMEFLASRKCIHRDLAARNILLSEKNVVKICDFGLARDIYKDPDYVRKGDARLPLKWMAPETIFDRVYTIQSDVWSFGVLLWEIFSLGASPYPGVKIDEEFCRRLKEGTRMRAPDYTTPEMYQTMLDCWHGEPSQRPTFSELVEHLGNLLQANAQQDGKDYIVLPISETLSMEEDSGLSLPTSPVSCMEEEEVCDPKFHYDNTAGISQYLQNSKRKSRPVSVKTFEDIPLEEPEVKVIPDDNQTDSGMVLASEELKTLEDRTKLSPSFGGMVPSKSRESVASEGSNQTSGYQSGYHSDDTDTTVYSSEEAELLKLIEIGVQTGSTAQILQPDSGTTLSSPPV
SMILES,IC50 [1],SI (selectivity index) HCT116 [1],IC50 [2],SI (selectivity index) MCF7 [2],SI = IC50 (AChE)/IC50 (BChE) (AChE),IC50 (AChE),EGFR % Inhibition (EGFR),EGFR RQ (relative quantification) (EGFR),VEGFR-2 % Inhibition (VEGFR-2),VEGFR-2 RQ (relative quantification) (VEGFR-2),CC50 at 24 h [3],"IC50 [4, 8]","IC50 [4, 9]",SI = CC50/IC50 [4],IC50 [5],IC50 (BChE),IC50 [6],SI (selectivity index) PaCa-2 [6],"IC50 [7, 10]","IC50 [7, 11]",also measured
"CCS(=O)(=O)N1C/C(=C\c2ccc(Cl)cc2)C(=O)C2(C1)C(c1ccc(Cl)cc1)CN(C)C21C(=O)Nc2ccccc21 (stereo not drawn) [Compound 6k, (E)-5″-(4-Chlorobenzylidene)-4′-(4-chlorophenyl)-1″-(ethylsulfonyl)-1′-methyldispiro[indoline-3,2′-pyrrolidine-3′,3″-piperidine]-2,4″-dione]",4.17 ± 0.38 µM,3.5,4.38 ± 0.26 µM,3.4,1.6,32.3 ± 4.78 µM,66.2%,1.163,66.2%,1.105,55.5 µM,8.43 µM,8.43 µM,6.6,14.8 ± 0.99 µM,19.6 ± 2.1 µM,8.83 ± 0.7 µM,1.7,2.97 ± 0.29 µM,2.97 µM,SI (selectivity index) A431 [7]: 5.0
"CN1CC(c2ccccc2)C2(CN(S(C)(=O)=O)C/C(=C\c3ccccc3)C2=O)C12C(=O)Nc1ccccc12 (stereo not drawn) [Compound 6a, (E)-5″-Benzylidene-1′-methyl-1″-(methylsulfonyl)-4′-phenyldispiro[indoline-3,2′-pyrrolidine-3′,3″-piperidine]-2,4″-dione]",16 ± 1.1 µM,> 3.1,19.8 ± 0.99 µM,> 2.5,1.1,22.2 ± 3.35 µM,66.4%,1.1593,60.9%,1.2773,5430 µM,34.3 µM,34.3 µM,158.6,> 50 µM,19.8 ± 2.18 µM,48.4 ± 2.23 µM,> 1.0,32.3 ± 1.14 µM,32.3 µM,SI (selectivity index) A431 [7]: > 1.5
"CCS(=O)(=O)N1C/C(=C\c2ccc(F)cc2)C(=O)C2(C1)C(c1ccc(F)cc1)CN(C)C21C(=O)Nc2ccccc21 (stereo not drawn) [Compound 6g, (E)-1″-(Ethylsulfonyl)-5″-(4-fluorobenzylidene)-4′-(4-fluorophenyl)-1′-methyldispiro[indoline-3,2′-pyrrolidine-3′,3″-piperidine]-2,4″-dione]",4.94 ± 0.25 µM,6.8,10.3 ± 0.86 µM,3.2,0.8,2.46 ± 0.99 µM,62.8%,1.28,63.7%,1.186,79.2 µM,16.9 µM,16.9 µM,4.7,33.4 ± 1.22 µM,3.22 ± 0.92 µM,28.4 ± 0.85 µM,1.2,6.17 ± 0.44 µM,6.17 µM,SI (selectivity index) A431 [7]: 5.4
"CN1CC(c2ccc(Cl)cc2)C2(CN(S(C)(=O)=O)C/C(=C\c3ccc(Cl)cc3)C2=O)C12C(=O)Nc1ccc(Cl)cc12 (stereo not drawn) [Compound 6j, (E)-5-Chloro-5″-(4-chlorobenzylidene)-4′-(4-chlorophenyl)-1′-methyl-1″-(methylsulfonyl)dispiro[indoline-3,2′-pyrrolidine-3′,3″-piperidine]-2,4″-dione]",4.72 ± 0.25 µM,2.6,4.51 ± 0.39 µM,2.8,1.9,42.8 ± 4.61 µM,63.3%,1.2634,57.9%,1.3745,201 µM,27.1 µM,27.1 µM,7.4,12.5 ± 0.86 µM,22.3 ± 3.33 µM,8.83 ± 0.51 µM,1.4,4.08 ± 0.21 µM,4.08 µM,SI (selectivity index) A431 [7]: 3.1
